target: T1, hPDE-4D6 (Homo sapiens, UniProt Q08499); test: In vitro measurement of type 4 phosphodiesterase inhibition activity (hPDE-4D6, [3H]cAMP/alumina column assay); assay type: biochemical; details: recombinant hPDE-4D6 from Sf9 cell lysate, 3 uM cAMP, 12 min, room temperature; read-out: PDE4D6 IC50
T1 construct: made in house; host or cells: Sf9 insect cells (baculovirus)
Method: Human PDE4 was obtained from baculovirus-infected Sf9 cells that expressed the recombinant enzyme. The cDNA encoding hPDE-4D6 was subcloned into a baculovirus vector.
Insect cells (Sf9) were infected with the baculovirus and cells were cultured until protein was expressed. The baculovirus-infected cells were lysed and the lysate was used as source of hPDE-4D6 enzyme. The enzyme was partially purified using a DEAE ion exchange chromatography. This procedure can be repeated using cDNA encoding other PDE-4 enzymes.
Type 4 phosphodiesterases convert cyclic adenosine monophosphate (cAMP) to 5′-adenosine monophosphate (5′-AMP). Nucleotidase converts 5′-AMP to adenosine. Therefore the combined activity of PDE4 and nucleotidase converts cAMP to adenosine. Adenosine is readily separated from cAMP by neutral alumina columns. Phosphodiesterase inhibitors block the conversion of cAMP to adenosine in this assay; consequently, PDE4 inhibitors cause a decrease in adenosine.
Cell lysates (40 ul) expressing hPDE-4D6 were combined with 50 ul of assay mix and 10 μl of inhibitors and incubated for 12 min at room temperature. Final concentrations of assay components were: 0.4 ug enzyme, 10 mM Tris-HCl (pH 7.5), 1 mM MgCl2, 3 uM cAMP, 0.002 U 5′-nucleotidase, and 3×10^4 cpm of [3H]cAMP. The reaction was stopped by adding 100 μl of boiling 5mN HCl. An aliquot of 75 μl of reaction mixture was transferred from each well to alumina columns (Multiplate; Millipore). Labeled adenosine was eluted into an OptiPlate by spinning at 2000 rpm for 2 min; 150 μl per well of scintillation fluid was added to the OptiPlate. The plate was sealed, shaken for about 30 min, and cpm of [^3H]adenosine was determined using a Wallac Triflux®.
All test compounds are dissolved in 100% DMSO and diluted into the assay such that the final concentration of DMSO is 0.1%.
A decrease in adenosine concentration is indicative of inhibition of PDE activity. […] Nonlinear regression software (Assay Explorer@) was used to estimate pIC50 values.

T1 sequence (Q08499 1-518 isoform Q08499-8): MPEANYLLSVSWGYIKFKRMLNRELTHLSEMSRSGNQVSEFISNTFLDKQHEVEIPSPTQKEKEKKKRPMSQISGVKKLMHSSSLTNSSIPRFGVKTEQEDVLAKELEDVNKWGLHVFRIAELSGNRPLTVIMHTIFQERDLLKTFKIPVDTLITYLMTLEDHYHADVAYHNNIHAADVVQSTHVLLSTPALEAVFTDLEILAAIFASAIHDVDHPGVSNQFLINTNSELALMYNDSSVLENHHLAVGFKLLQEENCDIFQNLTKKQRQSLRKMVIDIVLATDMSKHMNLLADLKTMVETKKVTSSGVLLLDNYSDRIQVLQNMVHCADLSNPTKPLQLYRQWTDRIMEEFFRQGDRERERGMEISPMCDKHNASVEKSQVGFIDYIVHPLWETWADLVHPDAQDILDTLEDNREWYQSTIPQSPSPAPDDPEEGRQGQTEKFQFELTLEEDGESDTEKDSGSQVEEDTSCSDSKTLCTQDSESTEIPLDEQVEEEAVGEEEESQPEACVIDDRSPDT

Q: `CCOc1cc(N(Cc2cccnc2)c2ccc(C(=O)O)cc2)ccc1OC(F)F` [Example 14] was tested. Which IC50 did it give?
A: The IC50 was 2.54 nM.

Q: `COc1ccc(N(Cc2cccnn2)c2ccc(C(=O)O)cc2)cc1OC1CCCC1` [Example 47] was tested. Which IC50 did it give?
A: Its IC50 is 128 nM.

Q: Which IC50 does the source give for `O=C(O)c1ccc(N(Cc2cncs2)c2ccc(OC(F)F)c(OC(F)F)c2)cc1` [Example 59] here?
A: Its IC50 is 5.69 nM.

Q: `COc1ccc(N(Cc2cncs2)c2ccc(C(=O)O)cc2)cc1OCC1CC1` [Example 72] was tested. Which IC50 did it give?
A: The IC50 was 25.1 nM.

Q: `O=C(O)c1ccc(N(Cc2cncnc2)c2ccc(OC(F)F)c(OC(F)F)c2)cc1` [Example 80] was tested. Which IC50 did it give?
A: Its IC50 is 6.17 nM.

Q: Which IC50 does the source give for `COc1ccc(N(Cc2cncs2)c2ccc(S(C)(=O)=O)cc2)cc1O[C@@H]1CCOC1` [Example 111] here?
A: The IC50 was 29 nM.

Q: Which IC50 does the source give for `COc1cc(N(Cc2cncs2)c2cccc(C(=O)O)c2)ccc1OC(F)F` [Example 116] here?
A: Its IC50 is 7 nM.

Q: With `COc1cc(N(Cc2cccnc2)c2ccc(C(=O)O)cc2)ccc1OC(F)F` [Example 124] as the molecule, how does the IC50 read?
A: The IC50 was 11.2 nM.

Q: With `CCOc1cc(N(Cc2cncs2)c2ccc(C(=O)O)cc2)ccc1OC` [Example 130] as the molecule, how does the IC50 read?
A: Its IC50 is 8.6 nM.

Q: How did the IC50 turn out when `COc1ccc(N(Cc2cncs2)c2ccc(C(=O)O)cc2)cc1OC(C)C` [Example 131] was run?
A: Its IC50 is 17.3 nM.

Q: How did the IC50 turn out when `O=C(O)Cc1ccc(N(Cc2cncnc2)c2ccc(OC(F)F)c(OC(F)F)c2)cc1` [Example 137] was run?
A: Its IC50 is 139 nM.

Q: How did the IC50 turn out when `COc1ccc(N(Cc2cncs2)c2ccc(C(=O)O)cc2)cc1OC` [Example 138] was run?
A: Its IC50 is 61 nM.

Q: How did the IC50 turn out when `O=C(O)Cc1cccc(N(Cc2cncnc2)c2ccc(OC(F)F)c(OC(F)F)c2)c1` [Example 139] was run?
A: Its IC50 is 53 nM.

Q: Which IC50 does the source give for `O=C(O)c1ccc(N(Cc2cnco2)c2ccc(OC(F)F)c(OC(F)F)c2)cc1` [Example 141] here?
A: Its IC50 is 27 nM.

Q: For `O=C(O)c1ccc(N(Cc2cnccn2)c2ccc(OC(F)F)c(OC(F)F)c2)cc1` [Example 142], which IC50 is on record?
A: Its IC50 is 289 nM.

Q: Which IC50 does the source give for `CCOc1cc(N(Cc2cncnc2)c2ccc(C(=O)O)cc2)ccc1OC(F)F` [Example 143] here?
A: Its IC50 is 7.5 nM.

Q: How did the IC50 turn out when `O=C(O)c1ccc(N(Cc2cnco2)c2ccc(OC(F)F)c(OC3CCC3)c2)cc1` [Example 182] was run?
A: Its IC50 is 3.8 nM.

Q: `COc1ccc(N(Cc2cnco2)c2ccc(C(=O)O)cc2)cc1OC1CC1` [Example 189] was tested. Which IC50 did it give?
A: Its IC50 is 2.3 nM.

Q: For `CCOc1cc(N(Cc2cocn2)c2ccc(C(=O)O)cc2)ccc1OC(F)F` [Example 190], which IC50 is on record?
A: The IC50 was 20 nM.

Q: For `CCOc1cc(N(Cc2cnco2)c2ccc(C(=O)O)cc2)ccc1OC(F)(F)F` [Example 217], which IC50 is on record?
A: Its IC50 is 12 nM.

Q: Which IC50 does the source give for `COc1ccc(N(Cc2cncnc2)c2cccc(C(=O)O)c2)cc1OC1CC1` [Example 218] here?
A: Its IC50 is 1.08 nM.

Q: How did the IC50 turn out when `CCOc1cc(N(Cc2cnc(C)s2)c2ccc(C(=O)O)cc2)ccc1OC(F)F` [Example 225] was run?
A: Its IC50 is 4.38 nM.

Q: Which IC50 does the source give for `COc1ccc(N(Cc2cnco2)c2ccc(C(=O)O)cc2)cc1OC(F)(F)F` [Example 232] here?
A: The IC50 was 6.94 nM.

Q: `CCOc1cc(N(Cc2cnns2)c2ccc(C(=O)O)cc2)ccc1OC(F)F` [Example 281] was tested. Which IC50 did it give?
A: The IC50 was 0.16 nM.

Q: For `CCOc1cc(Nc2ccc(C(=O)O)cc2)ccc1OC(F)F` [Example 294], which IC50 is on record?
A: The IC50 was 34.9 nM.

Q: For `O=C(O)c1ccc(Nc2ccc(OC(F)F)c(OC(F)F)c2)cc1` [Example 295], which IC50 is on record?
A: Its IC50 is 108 nM.

test system: rats; test: Passive avoidance in rats, in vivo test for learning and memory; set-up: species or system rat; details: male Sprague-Dawley rats, 0.1 mg/kg, 24 hours after electric shock, compared to vehicle (p<0.001)
Method: The test was performed as previously described (Zhang, H.-T., Crissman, A. M., Dorairaj, N. R., Chandler, L. J., and O'Donnell, J. M., Neuropsychopharmacology, 2000, 23, 198-204.). The apparatus (Model E10-16SC, Coulboum Instruments, Allentown, Pa.) consisted of a two-compartment chamber with an illuminated compartment connected to a darkened compartment by a guillotine door. The floor of the darkened compartment consisted of stainless steel rods through which an electric foot-shock could be delivered from a constant current source. All experimental groups were first habituated to the apparatus the day before the start of the experiment. During the training, the rat (Male Sprague-Dawley (Harlan) weighing 250 to 350 g) was placed in the illuminated compartment facing away from the closed guillotine door for 1 minute before the door was raised. The latency for entering the darkened compartment was recorded. After the rat entered the darkened compartment, the door was closed and a 0.5 mA electric shock was administered for 3 seconds. […] The latency for entering the darkened compartment was recorded for up to 180 seconds, at which time the trial was terminated.
(§1) All data were analyzed by analyses of variance (ANOVA); individual comparisons were made using Kewman-Keuls tests. […]

Q: Which “latency for entering the darkened compartment (retention test)” value does the source give for `C[C@]12N[C@H](Cc3ccccc31)c1ccccc12` [MK-801] here?
A: The value was “markedly reduced this latency”.

test system: rats; test: Radial arm maze task in rats, in vivo test for learning and memory; set-up: species or system rat; details: male Sprague-Dawley rats, 0.1 mg/kg, i.p., compared to control (p<0.01)
Method: The test was performed as previously described (Zhang, H.-T., Crissman, A. M., Dorairaj, N. R., Chandler, L. J., and O'Donnell, J. M., Neuropsychopharmacology, 2000, 23, 198-204.). Five days after initial housing, rats (male Sprague-Dawley (Harlan) weighing 250 to 350 g) were placed in the eight-arm radial maze (each arm was 60×10×12 cm high; the maze was elevated 70 cm above the floor) for acclimation for two days. Rats were then placed individually in the center of the maze for 5 minutes with food pellets placed close to the food wells, and then, the next day, in the wells at the end of the arms; 2 sessions a day were conducted. Next, four randomly selected arms were then baited with one pellet of food each. The rat was restricted to the center platform (26 cm in diameter) for 15 seconds and then allowed to move freely throughout the maze until it collected all pellets of food or 10 minutes passed, whichever came first. Four parameters were recorded: 1) working memory errors, i.e., entries into baited arms that had already been visited during the same trial; 2) reference memory errors, i.e., entries into unbaited arms; 3) total arm entries; and 4) the test duration (seconds), i.e., the time spent in the collection of all the pellets in the maze. […]
as §1

Q: With `C[C@]12N[C@H](Cc3ccccc31)c1ccccc12` [MK-801] as the molecule, how does the “frequencies of working and reference memory errors” value read?
A: Its value is “increased the frequencies of both working and reference memory errors”.

Reference: patent US20100029689A1, “PHOSPHODIESTERASE 4 INHIBITORS” (MEMORY PHARMACEUTICALS CORPORATION, priority 2008, published 2010)
